Test results taken from patent EP4748837A1, “AROMATIC AMIDE DERIVATIVE, AND PREPARATION METHOD THEREFOR AND USE THEREOF” (Zhejiang Hisun Pharmaceutical Co., Ltd., priority 2023, dated 2025).

Legend:
HT-29 cells = test: Inhibition of HT-29 cell proliferation (CellTiter-Glo cell viability); type: cell-based; conditions: Homo sapiens; HT-29 cells (TP53 R273H mutation), 120 hours culture with compound; read-out: IC50
In short: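 HT-29 cells (TP53 R273H) in McCOY's 5A with 10% FBS, seeded 1000 cells/well overnight, then exposed to compound at 1000 nM–0.015 nM final for 120 hours at 37°C. Viability by CellTiter-Glo luminescence versus 0.3% DMSO control; IC50 by nonlinear regression of log concentration–inhibition.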

[1] = test system: OVCAR-3 human ovarian adenocarcinoma tumor mass; test: Pharmacodynamic testing in subcutaneous OVCAR-3 xenograft model; type: in vivo, BALB/c nude mice; conditions: 35 days after administration, 8 mg/kg po QD, BALB/c nude mice
Experimental: Anti-tumor effects and Safeties of the Compounds 47 and 53 of the present invention in a BALB/c nude mouse animal model subjected to subcutaneous xenotransplantation of OVCAR-3 human ovarian adenocarcinoma tumor mass were evaluated.
BALB/c; nude mice, female, 6-7 weeks old, purchased from Jiangsu Gempharmatech Biotechnology Co., Ltd.
Mice in a solvent control group were given DMA: CrEL: 5%GS=10: 10: 80 (v: v: v). AMG650: a proper amount of AMG-650 was weigned, proper amounts of DMA, CrEL and 5% GS were added in sequence, and the mixture was well mixed by ultrasonic vortex to prepare 0.8 mg/mL drug preparations respectively, wherein DMA: CrEL : 5% GS=10: 10: 80 (v: v: v).
Compound 47: a proper amount of Compound 47 was added with proper amounts of DMA, CrEL and 5% GS in sequence, and evenly mixed by ultrasonic vortex to prepare 0.8 mg/mL drug preparations respectively, wherein DMA, CrEL and 5% GS=10: 10: 80 (v: v: v).
Compound 53: a proper amount of Compound 53 was weighed, proper amounts of DMA, CrEL and 5% GS were added in sequence, and the mixture was well mixed by ultrasonic vortex to prepare 0.8 mg/mL drug preparations respectively, wherein DMA: CrEL : 5% GS=10: 10: 80 (v: v: v).
An appropriate OVCAR-3 tumor-bearing animal was selected, and a 1 mm×1 mm×1 mm OVCAR-3 tumor mass was acquired aseptically and placed into normal saline for later use, which was used for subcutaneous tumor inoculation in a right side of back of the BALB/c nude mice.
About 1 mm×1 mm×1 mm OVCAR-3 tumor mass was subcutaneously inoculated in the right side of back of the female BALB/c nude mice. When an average tumor volume reached about 100-250 mm^3, the mice were randomly grouped based on tumor size, with 6 mice in each group.
Animals in each group were given the test compound once per day according to an animal weight at a fixed time every day by oral administration (po), the animals started to be administered with the test compound for the first time on the day of grouping for 35 consecutive days, and the animal weight was recorded every day.
The 1st group (G1) was a solvent control group; and
The 2nd-4th groups […] were orally administered with AMG-650, Compound 47 and Compound 53 at an administration dosage of 8 mg/kg once per day (QD).

OVCAR-3 cells = test: Inhibition of OVCAR-3 cell proliferation (CellTiter-Glo cell viability); type: cell-based; conditions: Homo sapiens; OVCAR-3 cells (TP53 R248Q mutation), 72 hours culture with compound; read-out: IC50
In short: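 OVCAR-3 cells (TP53 R248Q) in RPMI 1640 with 10% FBS were seeded at 1000 cells/well, grown overnight, then exposed to compound (final 1000 nM–0.015 nM) for 72 h at 37°C, 5% CO2. Viability was read by CellTiter-Glo luminescence. IC50 came from nonlinear regression of inhibition relative to 0.3% DMSO control.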

[2] = Pharmacokinetic testing in mice after intragastric administration; type: in vivo; conditions: male, mouse, ICR mice, oral administration 10 mg/kg, plasma
Experimental: ICR mice were taken as test animals, and intragastrically administered with a control compound AMG650 and compounds 47 and 53 of the present invention, and then drug concentrations in plasma at different moments were determined by an LC/MS/MS method, so as to study pharmacokinetic characteristics of the compounds of the present invention in the mice.
Control compound AMG650, and Compounds 47 and 53.
ICR mice, male, 20-22 g, purchased from Vital River Laboratory Animal Technology Co., Ltd.
A proper amount of to-be-tested compound was weighed, proper amounts of DMA, 30% HS-15 and Saline were added in sequence, and the mixture was well mixed by ultrasonic vortex to prepare 1 mg/mL drug preparations respectively, wherein […]: 30% HS-15: Saline=5: 5: 90 (v: v: v).
ICR mice in each to-be-tested compound injection group (9 mice in each group) were fasted overnight and then intragastrically administered with the compound (PO, an administration dosage of the compound was 10 mg/kg and an administration volume of the compound was 10 mL/kg), and were fed 4 hours after administration.
0.25 hours, 0.5 hours, 1 hour, 2 hours, 4 hours, 6 hours, 8 hours and 24 hours before and after administration, about […] of blood was collected through an orbit, and a complete blood sample was placed in an EDTA-K2-containing anticoagulation tube. The collected blood samples were placed on ice, and plasma was centrifugally separated (centrifugation conditions: 1500 g, 10 minutes). The collected plasma was stored at -40°C - -20°C before analysis.
A content of the to-be-tested compound in the plasma of the mice after intragastric administration was determined by LC-MS/MS.

recombinant human KIF18A = biological target: T1, recombinant human KIF18A (Homo sapiens, UniProt Q8NI77); test: Inhibition of KIF18A enzyme activity (ADP-Glo assay); type: biochemical; conditions: recombinant human KIF18A 100 nM, ATP 60 µM, tubulin, paclitaxel; read-out: IC50
T1 construct: purchased GenScript
Experimental: Inhibition degrees of the compounds of the present invention on recombinant human KIF18A enzyme activity in vitro were determined by the following method. An ADP-Glo™ Kinase Assay kit (article number V9102) from Promega Company was used in this method. Detailed experimental operation referred to the instruction of the kit.
An experimental process was briefly described as follows: a test compound was dissolved in DMSO first to prepare a stock solution, then the stock solution was gradiently diluted with a reaction buffer A ([…], 0.01% Pluronic F-68), and a final concentration of the test compound in the reaction system was in a range of 10000 nM-0.15 nM; and a KIF18A protein and ATP working solution was prepared by using a reaction buffer B (15 mM Tris, pH 7.5, 10 mM MgCl2, 0.01% Pluronic F-68, 37.5 µg/ml tubulin, 1.25 µM paclitaxel). The reaction was carried out in a 384-well microplate. The test compound and the recombinant human KIF18A protein (final concentration of 100 nM, entrusted to GenScript for expression) were added into the wells and incubated at room temperature for 20 minutes, and subsequently, an ATP solution (component V915A from the ADP-Glo™ Kinase Assay kit, final concentration of 60 µM) was added to the reaction solution and the system was incubated at room temperature for 20 minutes. Subsequently, 5 µL of ADP-Glo Reagent was added to the reaction systemand the system was incubated at room temperature for 50 minutes. Then, 10 µL of Kinase Detection Reagent was added to the reaction system and the system was incubated at room temperature for 30 minutes. After the incubation was ended, a chemiluminiscence intensity value of each well was determined by a microplate reader in a Luminescence mode.

T1 sequence (Q8NI77 whole entry): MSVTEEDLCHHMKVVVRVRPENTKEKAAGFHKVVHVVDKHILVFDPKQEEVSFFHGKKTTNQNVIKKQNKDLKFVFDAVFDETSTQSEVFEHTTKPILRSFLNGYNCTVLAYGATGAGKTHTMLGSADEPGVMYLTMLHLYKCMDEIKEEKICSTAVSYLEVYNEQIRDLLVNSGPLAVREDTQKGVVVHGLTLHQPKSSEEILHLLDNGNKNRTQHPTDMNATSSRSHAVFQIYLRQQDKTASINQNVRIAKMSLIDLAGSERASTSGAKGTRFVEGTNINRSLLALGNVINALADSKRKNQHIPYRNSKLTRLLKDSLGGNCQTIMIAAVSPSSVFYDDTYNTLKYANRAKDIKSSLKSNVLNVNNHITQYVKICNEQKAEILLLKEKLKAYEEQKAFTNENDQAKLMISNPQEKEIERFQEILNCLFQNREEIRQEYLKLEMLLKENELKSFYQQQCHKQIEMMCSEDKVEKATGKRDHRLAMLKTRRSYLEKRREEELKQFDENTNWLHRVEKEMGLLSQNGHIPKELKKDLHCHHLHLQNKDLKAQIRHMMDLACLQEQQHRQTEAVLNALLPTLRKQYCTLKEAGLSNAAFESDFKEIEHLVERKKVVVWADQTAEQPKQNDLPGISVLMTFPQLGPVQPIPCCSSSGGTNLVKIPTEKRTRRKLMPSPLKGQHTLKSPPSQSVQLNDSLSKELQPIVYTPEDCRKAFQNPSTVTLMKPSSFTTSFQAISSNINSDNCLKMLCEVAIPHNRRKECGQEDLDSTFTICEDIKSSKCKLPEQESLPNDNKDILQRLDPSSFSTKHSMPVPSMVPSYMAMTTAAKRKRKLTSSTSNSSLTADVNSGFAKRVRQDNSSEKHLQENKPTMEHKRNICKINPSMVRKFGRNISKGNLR
T1 sequence (P68363 whole entry partner): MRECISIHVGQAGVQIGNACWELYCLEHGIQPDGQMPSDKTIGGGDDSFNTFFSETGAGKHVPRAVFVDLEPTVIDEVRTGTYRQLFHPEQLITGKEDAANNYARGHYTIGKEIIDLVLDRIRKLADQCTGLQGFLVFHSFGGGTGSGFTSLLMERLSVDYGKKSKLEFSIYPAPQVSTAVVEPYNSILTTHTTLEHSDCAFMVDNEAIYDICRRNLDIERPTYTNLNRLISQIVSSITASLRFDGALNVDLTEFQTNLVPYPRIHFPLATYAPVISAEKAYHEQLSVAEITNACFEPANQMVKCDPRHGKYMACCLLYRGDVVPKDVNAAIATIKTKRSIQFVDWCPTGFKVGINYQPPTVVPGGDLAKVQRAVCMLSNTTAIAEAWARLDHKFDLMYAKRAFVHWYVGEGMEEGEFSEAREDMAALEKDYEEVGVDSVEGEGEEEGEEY
T1 sequence (Q9BVA1 whole entry partner): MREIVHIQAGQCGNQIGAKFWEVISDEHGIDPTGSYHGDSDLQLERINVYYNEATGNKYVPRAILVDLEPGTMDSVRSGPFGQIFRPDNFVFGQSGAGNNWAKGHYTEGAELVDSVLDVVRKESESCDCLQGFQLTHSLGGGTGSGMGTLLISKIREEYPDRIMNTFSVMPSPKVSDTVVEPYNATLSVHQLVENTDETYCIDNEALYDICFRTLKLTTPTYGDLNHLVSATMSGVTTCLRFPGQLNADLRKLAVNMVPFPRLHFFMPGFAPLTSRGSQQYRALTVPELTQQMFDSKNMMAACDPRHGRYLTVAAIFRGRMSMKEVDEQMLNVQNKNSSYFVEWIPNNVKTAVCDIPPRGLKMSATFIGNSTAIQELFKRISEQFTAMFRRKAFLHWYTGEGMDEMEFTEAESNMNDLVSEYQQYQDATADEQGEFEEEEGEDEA

IC50 (HT-29 cells)	IC50 (OVCAR-3 cells)	AUC(0-inf) ([2]; read-out: Area under the curve AUC0-∞)	half-life ([2]; read-out: Half-life period T1/2 (converted))	Cmax ([2]; read-out: Plasma concentration Cmax)	IC50 (recombinant human KIF18A)	SMILES	TGI% [1]	Tumor volume (x±S) ([1]; mean value ± standard error, in mm³ (unit assumed))
0.0617 µM	0.0645 µM	52500 ng·h/mL	9.64 h	3050 ng/mL	–	Cc1cc(NC(=O)c2ccc(NS(=O)(=O)CCO)cc2N2CCC3(CC2)CC3)nc(N2CCC(F)(F)CC2)n1 [AMG 650, reference compound]	68.1%	313±76
0.0096 µM	0.0126 µM	–	–	–	0.0704 µM	CCS(=O)(=O)Nc1ccc(C(=O)Nc2ccc(-c3nnco3)c(N3CC(F)(F)C3)c2)c(N2CCC3(CC2)CC3)c1 [Example 49, N-(3-(3,3-difluoroazetidin-1-y 1)-4-(1,3,4-oxadiazol-2-yl)phenyl)-4-(ethylsulfonamido)-2-(6-azaspiro[2.5]octan-6-yl)benzamide]	–	–
0.0015 µM	0.0022 µM	–	–	–	0.0917 µM	[2H]C([2H])([2H])Oc1ccc(NC(=O)c2ccc(NS(=O)(=O)CCO)cc2N2CCC3(CC2)CC3)cc1N1CCC(F)(F)CC1 [Example 58, N-(3-(4,4-difluoropiperidin-1-yl)-4-(methoxy-d3)phenyl)-4-( (2-hydroxyethyl)sulfonamido) -2-(6-azaspiro[2.5]octan-6-yl) benzamide]	–	–
